Read-outs that look alike come from different tables or passages of the source.
Legend:
[1] = biological target: GSK3α (GST-full length GSK3α) (Homo sapiens (Human), UniProt P49840); test: GSK3α TR-FRET kinase assay; format: biochemical
How it was run: (§1)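 IC50s came from the normalized 665/615 TR-FRET ratio after Tb-anti-pSer641 antibody and streptavidin-d2 detection of phosphorylated biotin-glycogen synthase peptide (200 nM). ATP was 4 μM for GSK3α, 2 μM for GSK3b, or 1 mM; 1 nM enzyme, 100 min, ambient, pH 7.5, after 30-min compound preincubation.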

[2] = biological target: GSK3b (GST-full length GSK3b) (Homo sapiens (Human), UniProt P49841); test: GSK3b TR-FRET kinase assay; format: biochemical
How it was run: as §1

[3] = 1 nM GSK3α, 4 μM ATP, 30 minute preincubation, Table 16, read-out: GSK3-A TR-FRET BIOCHEMICAL (TR-FRET)
[4] = 1 nM GSK3b, 2 μM ATP, 30 minute preincubation, Table 16, read-out: GSK3-B TR-FRET BIOCHEMICAL (TR-FRET)
[5] = 1 nM GSK3α, 4 μM ATP, 30 minute preincubation, Table 16, read-out: GSK3-A TR-FRET BIOCHEMICAL (TR-FRET), IC50
[6] = 1 nM GSK3b, 2 μM ATP, 30 minute preincubation, Table 16, read-out: GSK3-B TR-FRET BIOCHEMICAL (TR-FRET), IC50
[7] = read-out: GSK3-A (TR-FRET 1 mM ATP), GMean, IC50, 1 mM ATP, geometric mean
[8] = read-out: GSK3-B (TR-FRET 1 mM ATP), GMean, IC50, 1 mM ATP, geometric mean
[9] = 1 nM GSK3α, 4 μM ATP, 30 minute preincubation, read-out: GSK3-A TR-FRET BIOCHEMICAL (TR-FRET), IC50
[10] = 1 nM GSK3b, 2 μM ATP, 30 minute preincubation, read-out: GSK3-B TR-FRET BIOCHEMICAL (TR-FRET), IC50
[11] = GSK3-A (TR-FRET 1 mM ATP), GMean, IC50, 1 mM ATP, geometric mean
[12] = GSK3-B (TR-FRET 1 mM ATP), GMean, IC50, 1 mM ATP, geometric mean

Sequence of GSK3b (GST-full length GSK3b) (P49841 whole entry): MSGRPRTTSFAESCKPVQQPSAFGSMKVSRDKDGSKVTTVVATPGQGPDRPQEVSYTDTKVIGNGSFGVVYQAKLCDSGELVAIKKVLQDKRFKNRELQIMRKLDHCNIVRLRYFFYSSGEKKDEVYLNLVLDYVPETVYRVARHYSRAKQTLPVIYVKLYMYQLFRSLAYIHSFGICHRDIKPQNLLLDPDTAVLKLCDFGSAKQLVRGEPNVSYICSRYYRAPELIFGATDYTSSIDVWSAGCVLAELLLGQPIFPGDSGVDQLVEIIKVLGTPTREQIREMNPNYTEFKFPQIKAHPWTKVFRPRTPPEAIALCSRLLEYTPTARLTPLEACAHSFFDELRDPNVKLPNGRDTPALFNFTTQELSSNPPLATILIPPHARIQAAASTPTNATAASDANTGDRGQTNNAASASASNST
Sequence of GSK3α (GST-full length GSK3α) (P49840 whole entry): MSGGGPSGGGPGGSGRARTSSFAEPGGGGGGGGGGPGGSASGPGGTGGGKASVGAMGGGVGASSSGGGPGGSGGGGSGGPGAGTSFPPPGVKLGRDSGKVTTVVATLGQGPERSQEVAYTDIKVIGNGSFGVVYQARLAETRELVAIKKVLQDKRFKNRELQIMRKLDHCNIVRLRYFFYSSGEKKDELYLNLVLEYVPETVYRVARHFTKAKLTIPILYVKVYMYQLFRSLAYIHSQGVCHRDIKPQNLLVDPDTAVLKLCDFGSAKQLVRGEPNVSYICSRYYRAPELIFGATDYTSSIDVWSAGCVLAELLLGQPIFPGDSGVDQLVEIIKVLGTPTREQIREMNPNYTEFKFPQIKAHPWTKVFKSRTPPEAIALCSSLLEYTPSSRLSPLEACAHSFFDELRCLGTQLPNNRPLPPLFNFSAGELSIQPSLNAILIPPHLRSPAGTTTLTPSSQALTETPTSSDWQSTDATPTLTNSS

Structure (SMILES) | IC50 [1, 3] [nM] | IC50 [2, 4] [nM] | other results
CC1(C)CC(=O)C2=C(C1)Nc1n[nH]cc1[C@@]21CCCN(S(=O)(=O)C2CC2)CC1 [Compound 932639] | ≤ 100 | 100 to 1000 | 
CCC1(c2cccc(N(C)c3ccnc(OC)c3)c2)C2=C(CC(C)(C)CC2=O)Nc2n[nH]cc21 (stereo not drawn) [Compound 932642] |  |  | IC50 [1, 5]: ≤ 100 nM; IC50 [2, 6]: 100 to 1000 nM
CCC1(c2cccc(N3CCOc4ncccc43)c2)C2=C(CC(C)(C)CC2=O)Nc2n[nH]cc21 (stereo not drawn) [Compound 932643] |  |  | IC50 [1, 5]: 100 to 1000 nM; IC50 [2, 6]: 1000 to 5000 nM
CCC1(c2cccc(N(C)c3ccnc(C)c3)c2)C2=C(CC(C)(C)CC2=O)Nc2n[nH]cc21 (stereo not drawn) [Compound 932645] |  |  | IC50 [1, 5]: 100 to 1000 nM; IC50 [2, 6]: 1000 to 5000 nM
CC(C)N1CC2(C1)C1=C(CC(C)(C)CC1=O)Nc1n[nH]cc12 [Compound 932650] |  |  | IC50 [1, 5]: > 5000 nM; IC50 [2, 6]: > 5000 nM
CC1(C)CC(=O)C2=C(C1)Nc1n[nH]cc1C21CN(C2CCOCC2)C1 [Compound 932651] |  |  | IC50 [1, 5]: > 5000 nM; IC50 [2, 6]: > 5000 nM
Cn1ccc(CN2CC3(C2)C2=C(CC(C)(C)CC2=O)Nc2n[nH]cc23)n1 [Compound 932652] |  |  | IC50 [1, 5]: > 5000 nM; IC50 [2, 6]: > 5000 nM
Cn1nccc1CN1CC2(C1)C1=C(CC(C)(C)CC1=O)Nc1n[nH]cc12 [Compound 932653] |  |  | IC50 [1, 5]: 1000 to 5000 nM; IC50 [2, 6]: > 5000 nM
CC1(C)CC(=O)C2=C(C1)Nc1n[nH]cc1C21CN(Cc2cnc3ccccn23)C1 [Compound 932654] |  |  | IC50 [1, 5]: > 5000 nM; IC50 [2, 6]: > 5000 nM
Cn1ccc(S(=O)(=O)N2CCC[C@]3(CC2)C2=C(CC(C)(C)CC2=O)Nc2n[nH]cc23)n1 [Compound 932660] | ≤ 100 | 100 to 1000 | 
CCC1(c2cccc(N3CCOc4ncccc43)c2)C2=C(CC(C)(C)CC2=O)Nc2n[nH]cc21 (stereo not drawn) [Compound 932663] | ≤ 100 | ≤ 100 | 
COC(=O)C1(c2ccccc2)CC2(C1)C1=C(CC(C)(C)CC1=O)Nc1n[nH]cc12 (stereo not drawn) [Compound 942344] | ≤ 100 | 100 to 1000 | 
COC(=O)C1(c2ccccc2)CC2(C1)C1=C(CC(C)(C)CC1=O)Nc1n[nH]cc12 (stereo not drawn) [Compound 942366] | ≤ 100 | ≤ 100 | 
CC1(C)CC(=O)C2=C(C1)Nc1n[nH]cc1[C@@]21CCN(S(C)(=O)=O)C1 [Compound 942462] | ≤ 100 | ≤ 100 | 
CCC1(c2cccc(-c3cc(C)nn3C)c2)C2=C(CC(C)(C)NC2=O)Nc2[nH]ncc21 (stereo not drawn) [Compound 943371] |  |  | IC50 [1, 9]: ≤ 100 nM; IC50 [2, 10]: 1000 to 5000 nM
CC1(C)CC(=O)C2=C(C1)Nc1n[nH]cc1[C@]21CCN(S(=O)(=O)CC2CC2)C1 [Compound 943481] | ≤ 100 | ≤ 100 | IC50 [1, 11]: 100 to 1000 nM; IC50 [2, 8]: 100 to 1000 nM
Cn1ccc(S(=O)(=O)N2CC[C@]3(C2)C2=C(CC(C)(C)CC2=O)Nc2n[nH]cc23)n1 [Compound 943484] | ≤ 100 | ≤ 100 | IC50 [1, 11]: 100 to 1000 nM; IC50 [2, 12]: 1000 to 5000 nM
COc1cccc(S(=O)(=O)N2CC[C@]3(C2)C2=C(CC(C)(C)CC2=O)Nc2n[nH]cc23)c1 [Compound 943486] | ≤ 100 | ≤ 100 | 
CC1(C)CC(=O)C2=C(C1)Nc1n[nH]cc1[C@]21CCN(S(=O)(=O)c2ccccc2F)C1 [Compound 943487] |  |  | IC50 [1, 9]: ≤ 100 nM; IC50 [1, 11]: ≤ 100 nM; IC50 [2, 10]: ≤ 100 nM; IC50 [2, 12]: 100 to 1000 nM

Structure (SMILES) | IC50 [1, 3] [nM] | IC50 [2, 4] [nM] | other results
CC1(C)CC(=O)C2=C(C1)Nc1n[nH]cc1[C@]21CCN(S(=O)(=O)c2cccc(F)c2)C1 [Compound 943488] | ≤ 100 | ≤ 100 | 
Cc1cccc(S(=O)(=O)N2CC[C@]3(C2)C2=C(CC(C)(C)CC2=O)Nc2n[nH]cc23)c1 [Compound 943489] | ≤ 100 | ≤ 100 | 
CCC1(c2cccc(N(C)c3ccnnc3)c2)C2=C(CC(C)(C)CC2=O)Nc2n[nH]cc21 (stereo not drawn) [Compound 943492] | ≤ 100 | ≤ 100 | 
CCC1(c2cccc(-c3cnnc(C)c3)c2)C2=C(CC(C)(C)NC2=O)Nc2n[nH]cc21 (stereo not drawn) [Compound 943496] |  |  | IC50 [1, 9]: ≤ 100 nM; IC50 [2, 10]: 1000 to 5000 nM
CC[C@]1(c2cccc(-c3cc(C)ncc3C)c2)C2=C(CC(C)(C)CC2=O)Nc2n[nH]cc21 [Compound 943515] | 1000 to 5000 | > 5000 | 
CCC1(c2cccc(-c3ccnc(C)c3C)c2)C2=C(CC(C)(C)CC2=O)Nc2n[nH]cc21 (stereo not drawn) [Compound 943516] | ≤ 100 | ≤ 100 | IC50 [1, 7]: ≤ 100 nM; IC50 [2, 8]: 1000 to 5000 nM
CCC1(c2cccc(-c3ccncc3F)c2)C2=C(CC(C)(C)CC2=O)Nc2n[nH]cc21 (stereo not drawn) [Compound 943518] | ≤ 100 | ≤ 100 | IC50 [1, 7]: ≤ 100 nM; IC50 [2, 8]: 100 to 1000 nM
CCC1(c2cccc(-c3cnc(C)n3C)c2)C2=C(CC(C)(C)CC2=O)Nc2n[nH]cc21 (stereo not drawn) [Compound 943531] | ≤ 100 | 100 to 1000 | IC50 [1, 7]: 100 to 1000 nM; IC50 [2, 8]: > 5000 nM
CCC1(c2cccc(-c3ncnn3C)c2)C2=C(CC(C)(C)CC2=O)Nc2n[nH]cc21 (stereo not drawn) [Compound 943532] | ≤ 100 | 100 to 1000 | 
CCC1(c2cccc(-c3cncn3C)c2)C2=C(CC(C)(C)CC2=O)Nc2n[nH]cc21 (stereo not drawn) [Compound 943533] | ≤ 100 | ≤ 100 | 
CCC1(c2cccc(-c3cnc4n3CCCC4)c2)C2=C(CC(C)(C)CC2=O)Nc2n[nH]cc21 (stereo not drawn) [Compound 943535] | ≤ 100 | ≤ 100 | 
CCC1(c2cccc(N(C)c3cc(C)ccn3)c2)C2=C(CC(C)(C)CC2=O)Nc2n[nH]cc21 (stereo not drawn) [Compound 943537] | ≤ 100 | 100 to 1000 | 
CCC1(c2cccc(-c3ccncc3CO)c2)C2=C(CC(C)(C)CC2=O)Nc2n[nH]cc21 (stereo not drawn) [Compound 943539] | ≤ 100 | ≤ 100 | 
CCC1(c2cccc(-c3ccnc(CO)c3)c2)C2=C(CC(C)(C)CC2=O)Nc2n[nH]cc21 (stereo not drawn) [Compound 943540] | ≤ 100 | 100 to 1000 | 
CCC1(c2cccc(S(=O)(=O)C3CCCCC3)c2)C2=C(CC(C)(C)CC2=O)Nc2n[nH]cc21 (stereo not drawn) [Compound 943541] | ≤ 100 | ≤ 100 | IC50 [1, 7]: 100 to 1000 nM; IC50 [2, 8]: 1000 to 5000 nM
CC1(C)CC(=O)C2=C(C1)Nc1n[nH]cc1C21CN(S(=O)(=O)Cc2ccccc2)C1 [Compound 943543] | ≤ 100 | ≤ 100 | 
COCCN1CC2(C1)C1=C(CC(C)(C)CC1=O)Nc1n[nH]cc12 [Compound 943544] |  |  | IC50 [1, 5]: > 5000 nM; IC50 [2, 6]: > 5000 nM
CC1(C)CC(=O)C2=C(C1)Nc1n[nH]cc1C21CN(CC2CCOCC2)C1 [Compound 943545] |  |  | IC50 [1, 5]: > 5000 nM; IC50 [2, 6]: > 5000 nM
CC[C@]1(c2cccc(S(=O)(=O)CCOC)c2)C2=C(CC(C)(C)CC2=O)Nc2n[nH]cc21 [Compound 943546] | 1000 to 5000 | > 5000 | 

More lines, main results first:

IC50 [1, 3] [nM] | IC50 [2, 4] [nM] | Structure (SMILES) | other results
≤ 100 | ≤ 100 | Cn1nccc1S(=O)(=O)N1CC2(C1)C1=C(CC(C)(C)CC1=O)Nc1n[nH]cc12 [Compound 932648] | 
≤ 100 | ≤ 100 | Cn1nccc1S(=O)(=O)N1CCC2(CC1)C1=C(CC(C)(C)CC1=O)Nc1n[nH]cc12 [Compound 932649] | 
≤ 100 | 100 to 1000 | CC1(C)CC(=O)C2=C(C1)Nc1n[nH]cc1[C@]21CCCN(S(=O)(=O)C2CC2)CC1 [Compound 932659] | 
≤ 100 | 100 to 1000 | CC[C@]1(c2cccc(N(C)c3cccc(OC)n3)c2)C2=C(CC(C)(C)CC2=O)Nc2n[nH]cc21 [Compound 932666] | 
≤ 100 | ≤ 100 | CC1(C)CC(=O)C2=C(C1)Nc1n[nH]cc1[C@]21CCN(S(C)(=O)=O)C1 [Compound 942432] | 
≤ 100 | ≤ 100 | CCC1(c2cccc(N(C)c3nccc(C)n3)c2)C2=C(CC(C)(C)CC2=O)Nc2n[nH]cc21 (stereo not drawn) [Compound 942642] | IC50 [1, 7]: ≤ 100 nM; IC50 [2, 8]: 1000 to 5000 nM
≤ 100 | ≤ 100 | CC1(C)CC(=O)C2=C(C1)Nc1n[nH]cc1[C@]21CCN(S(=O)(=O)C2CCCC2)C1 [Compound 943482] | IC50 [1, 11]: 100 to 1000 nM; IC50 [2, 12]: 100 to 1000 nM
≤ 100 | ≤ 100 | Cn1cc(S(=O)(=O)N2CC[C@]3(C2)C2=C(CC(C)(C)CC2=O)Nc2n[nH]cc23)cn1 [Compound 943483] | 
≤ 100 | ≤ 100 | CC1(C)CC(=O)C2=C(C1)Nc1n[nH]cc1[C@]21CCN(S(=O)(=O)c2ccccc2)C1 [Compound 943485] | IC50 [1, 11]: 100 to 1000 nM; IC50 [2, 12]: 1000 to 5000 nM
100 to 1000 | > 5000 | CCC1(c2cccc(-c3ccnc(C)c3C)c2)C2=C(CC(C)(C)CC2=O)Nc2n[nH]cc21 (stereo not drawn) [Compound 943517] | 
100 to 1000 | 1000 to 5000 | CC[C@]1(c2cccc(-c3ccncc3F)c2)C2=C(CC(C)(C)CC2=O)Nc2n[nH]cc21 [Compound 943519] | 
≤ 100 | ≤ 100 | CCC1(c2cccc(-c3ccnc4c3CCC4)c2)C2=C(CC(C)(C)CC2=O)Nc2n[nH]cc21 (stereo not drawn) [Compound 943534] | 

From patent US20250313563A1, “GLYCOGEN SYNTHASE KINASE 3 INHIBITORS AND USES THEREOF” (The Broad Institute, Inc., priority 2022, published 2025)
